Data reported in the supplement of paper PMC10307832.

The cell lines below were run with O=C(/C=C/c1ccccc1)NC(NC(=S)Nc1cccc2cccnc12)C(Cl)(Cl)Cl [Salubrinal] + C[C@@H](Oc1cc(-c2cnn(C3CCNCC3)c2)cnc1N)c1c(Cl)ccc(F)c1Cl [Crizotinib] (partner 1 µM) (assay: relative viability (nuclei count vs DMSO), 5 days (fraction); higher = more cells survive). Details: first compound 0.08 µM.
Outline: (§1)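 Dosing by pin tool came one day after lung cancer cell lines were seeded in 1536-well plates, using either one drug or a fixed anchor-drug dose plus five library-drug doses (not always all listed) in √10 steps. After 5 days, nuclei were counted on 4× images. Relative viability is treated-well nuclei count divided by vehicle-well nuclei count, and values are medians of duplicate plates.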

Cell Line	relative viability
NCI-H727	0.943
NCI-H1650	1.06
EBC-1	0.207
NCI-H1703	0.535
NCI-H1993	0.795
SW 1573	0.653
NCI-H838	1.08
LCLC-103H	1.07
NCI-H520	0.816
NCI-H2126	1.14
EMC-BAC-2	0.749
NCI-H2085	0.901
Calu-6	0.949
HCC-366	0.798
NCI-H1666	1.17
NCI-H596	1.07
LK-2	0.249
NCI-H2087	0.984

Cell Line	relative viability
NCI-H358	0.559
NCI-H2170	1.45
H3255	1.16
COR-L23	0.749
COR-L 105	0.962
IA-LM	0.784
LOU-NH91	0.787
ChaGo-K-1	1.25
NCI-H2405	0.858
A549	0.864
SK-MES-1	1.05
NCI-H1299	0.993
CAL-12T	0.661
NCI-H2228	0.496
NCI-H1563	0.853
ABC-1	1.23
NCI-H1944	1.22

Same assay, conditions: first compound 0.253 µM

Cell Line	relative viability
NCI-H727	0.559
NCI-H1650	0.859
EBC-1	0.214
NCI-H1993	0.856
SW 1573	0.747
NCI-H838	0.719
LCLC-103H	1.06
NCI-H520	0.489
NCI-H2126	0.961
EMC-BAC-2	0.676
NCI-H2085	0.804
Calu-6	0.644
HCC-366	0.437
NCI-H1666	0.852
NCI-H596	0.901
LK-2	0.252
NCI-H2087	0.758

Cell Line	relative viability
NCI-H358	0.553
NCI-H2170	1.06
H3255	0.823
COR-L23	0.775
COR-L 105	0.624
IA-LM	0.602
LOU-NH91	0.747
ChaGo-K-1	0.927
NCI-H2405	0.866
A549	0.491
SK-MES-1	1
NCI-H1299	0.802
CAL-12T	0.484
NCI-H2228	0.446
NCI-H1563	0.859
ABC-1	0.919
NCI-H1944	1.12

Same assay, conditions: first compound 0.8 µM

Cell Line	relative viability
NCI-H727	1.03
NCI-H1650	1.02
EBC-1	0.22
NCI-H1703	1.06
NCI-H1993	0.794
SW 1573	0.866
NCI-H838	0.854
LCLC-103H	1.05
NCI-H520	0.771
NCI-H2126	1.12
EMC-BAC-2	0.811
NCI-H2085	0.789
Calu-6	0.898
HCC-366	0.777
NCI-H1666	1.14
NCI-H596	1.07
LK-2	0.247
NCI-H2087	0.913

Cell Line	relative viability
NCI-H358	0.506
NCI-H2170	1.38
H3255	1.12
COR-L23	0.699
COR-L 105	0.76
IA-LM	1.19
LOU-NH91	0.74
ChaGo-K-1	1.44
NCI-H2405	0.922
A549	0.902
SK-MES-1	1
NCI-H1299	0.943
CAL-12T	0.806
NCI-H2228	0.632
NCI-H1563	0.878
ABC-1	1.22
NCI-H1944	1.29

Same assay, conditions: first compound 2.53 µM

Cell Line	relative viability
NCI-H727	0.999
NCI-H1650	0.882
EBC-1	0.211
NCI-H1703	0.701
NCI-H1993	0.909
SW 1573	0.781
NCI-H838	0.951
LCLC-103H	1.07
NCI-H520	0.663
NCI-H2126	1.01
EMC-BAC-2	0.721
NCI-H2085	0.813
Calu-6	0.821
HCC-366	0.393
NCI-H1666	0.784
NCI-H596	1.02
LK-2	0.218
NCI-H2087	0.867

Cell Line	relative viability
NCI-H358	0.51
NCI-H2170	1.26
H3255	0.804
COR-L23	0.563
COR-L 105	0.772
IA-LM	0.767
LOU-NH91	0.756
ChaGo-K-1	1.1
NCI-H2405	0.924
A549	0.702
SK-MES-1	1.02
NCI-H1299	0.99
CAL-12T	0.48
NCI-H2228	0.353
NCI-H1563	0.851
ABC-1	1.25
NCI-H1944	1.08

Same assay, conditions: first compound 8 µM

Cell Line	relative viability
NCI-H727	0.84
NCI-H1650	0.942
EBC-1	0.18
NCI-H1703	0.576
NCI-H1993	0.941
SW 1573	0.898
NCI-H838	0.82
LCLC-103H	0.984
NCI-H520	0.681
NCI-H2126	1.03
EMC-BAC-2	0.76
NCI-H2085	0.834
Calu-6	0.728
HCC-366	0.55
NCI-H1666	0.94
NCI-H596	1.05
LK-2	0.23
NCI-H2087	0.865

Cell Line	relative viability
NCI-H358	0.478
NCI-H2170	1.21
H3255	0.775
COR-L23	0.492
COR-L 105	0.689
IA-LM	0.575
LOU-NH91	0.75
ChaGo-K-1	0.929
NCI-H2405	0.958
A549	0.695
SK-MES-1	0.908
NCI-H1299	0.925
CAL-12T	0.446
NCI-H2228	0.362
NCI-H1563	0.962
ABC-1	1.02
NCI-H1944	1.21

These cell lines were tested with Cc1ccc2nc(NCCN)c3ncc(C)n3c2c1 + Nc1ncn([C@H]2C[C@H](O)[C@@H](CO)O2)c(=O)n1 [Decitabine] (partner 2 µM) in the same assay as above. Details: first compound 0.04 µM.
Outline: as §1

Cell Line	relative viability
NCI-H522	0.573
NCI-H2342	0.688
NCI-H727	0.976
NCI-H1650	0.365
NCI-H1993	0.731
SW 1573	0.593
NCI-H838	0.494
LCLC-103H	0.71
NCI-H520	0.488
NCI-H2126	0.6
EMC-BAC-2	0.973
NCI-H2085	0.56
HCC-366	0.349
NCI-H1666	0.753
NCI-H596	1.02
LK-2	0.289

Cell Line	relative viability
NCI-H2087	0.308
NCI-H358	0.225
NCI-H2170	0.473
H3255	0.594
COR-L23	0.455
COR-L 105	0.758
LOU-NH91	0.814
ChaGo-K-1	0.542
NCI-H1793	0.32
NCI-H2405	0.706
A549	0.281
SK-MES-1	0.36
NCI-H1395	0.616
NCI-H1648	0.521
ABC-1	1.14
NCI-H1944	0.377

Same assay, conditions: first compound 0.1265 µM

Cell Line	relative viability
NCI-H522	0.795
NCI-H2342	0.73
NCI-H1650	0.392
NCI-H1993	0.468
SW 1573	0.497
NCI-H838	0.461
LCLC-103H	0.81
NCI-H520	0.466
NCI-H2126	0.571
EMC-BAC-2	1.01
NCI-H2085	0.556
HCC-366	0.362
NCI-H1666	0.719
NCI-H596	0.967
LK-2	0.393
NCI-H2087	0.362

Cell Line	relative viability
NCI-H358	0.216
NCI-H2170	0.442
H3255	0.611
COR-L23	0.405
COR-L 105	0.738
LOU-NH91	0.807
ChaGo-K-1	0.546
NCI-H1793	0.5
NCI-H2405	0.713
A549	0.238
SK-MES-1	0.462
SW 900	0.43
NCI-H1395	0.708
NCI-H1648	0.5
ABC-1	1.32
NCI-H1944	0.428

Same assay, conditions: first compound 0.4 µM

Cell Line	relative viability
NCI-H522	0.765
NCI-H2342	0.799
NCI-H727	0.995
NCI-H1650	0.374
NCI-H1993	0.632
SW 1573	0.547
NCI-H838	0.428
LCLC-103H	0.731
NCI-H520	0.439
NCI-H2126	0.62
EMC-BAC-2	0.989
NCI-H2085	0.522
HCC-366	0.302
NCI-H1666	0.692
NCI-H596	0.979
LK-2	0.337
NCI-H2087	0.249

Cell Line	relative viability
NCI-H358	0.239
NCI-H2170	0.433
H3255	0.546
COR-L23	0.406
COR-L 105	0.722
LOU-NH91	0.808
ChaGo-K-1	0.511
NCI-H1793	0.439
NCI-H2405	0.747
A549	0.207
SK-MES-1	0.421
SW 900	0.448
NCI-H1395	0.713
NCI-H1648	0.568
ABC-1	1.12
NCI-H1944	0.436

Same assay, conditions: first compound 1.265 µM

Cell Line	relative viability
NCI-H522	0.62
NCI-H2342	0.737
NCI-H727	0.84
NCI-H1650	0.393
NCI-H1993	0.606
SW 1573	0.637
NCI-H838	0.44
LCLC-103H	0.717
NCI-H520	0.529
NCI-H2126	0.599
EMC-BAC-2	1.06
NCI-H2085	0.534
HCC-366	0.357
NCI-H1666	0.792
NCI-H596	0.887
LK-2	0.311
NCI-H2087	0.285

Cell Line	relative viability
NCI-H358	0.257
NCI-H2170	0.448
H3255	0.69
COR-L23	0.488
COR-L 105	0.673
LOU-NH91	0.827
ChaGo-K-1	0.545
NCI-H1793	0.383
NCI-H2405	0.728
A549	0.299
SK-MES-1	0.445
SW 900	0.354
NCI-H1395	0.669
NCI-H1648	0.528
ABC-1	0.87
NCI-H1944	0.418

Same assay, conditions: first compound 4 µM

Cell Line	relative viability
NCI-H522	0.675
NCI-H2342	0.72
NCI-H727	0.797
NCI-H1650	0.38
NCI-H1993	0.583
SW 1573	0.37
NCI-H838	0.427
LCLC-103H	0.735
NCI-H520	0.503
NCI-H2126	0.563
EMC-BAC-2	0.966
NCI-H2085	0.524
HCC-366	0.34
NCI-H1666	0.647
NCI-H596	0.897
LK-2	0.297
NCI-H2087	0.299
NCI-H358	0.206
